Data set [1] has as its system A549. As to the kind of experiment: Methylene Blue Cell Growth Inhibition Assay, A549. Type of data set: cell-based. The following applies: Homo sapiens, 72 h, read-out: MEB A549 IC50. As to the method:
(§1) Normal human foreskin fibroblasts (HFF), human colon (HCT116, RKO), lung (H460, A549) and breast (MCF7) tumor cell lines were cultured in high glucose DMEM (Life Technologies) containing 10% fetal bovine serum (FBS) at 37° C. in a humidified 5% CO2, 95% air incubator. Cells were harvested using trypsin/EDTA, counted using a haemocytometer, and plated in 100 μL of culture media per well, at the following densities, in a 96-well tissue culture plate (Falcon 3075): HFF 5,000 cells/well, HCT116 3,000 cells/well, RKO 2,500 cells/well, H460 2,500 cells/well, A549 5,000 cells/well, MCF7 4,000 cells/well. The next day, compounds were diluted in low glucose DMEM containing 100 μg/mL gentamicin, at twice the final required concentration, from 10 mM stock solutions in DMSO. 100 μL/well of these dilutions were added to the 100 μL of media currently in the assay plates. Medium containing 0.6% DMSO was added to control wells. The final concentration of DMSO in all wells was 0.3%. Cells were incubated at 37° C., 5% CO2 for 72 h. Medium was removed by aspiration. Cell biomass was estimated by staining cells with 80 μL per well methylene blue (Sigma M9140, 0.5% in 50:50 ethanol:water), and incubation at room temperature for 30-60 min. Stain was removed by aspiration and the plates rinsed by immersion in water, then air-dried. To release stain from the cells, 100 μL of solubilization solution was added (1% N-lauroyl sarcosine, Sodium salt, Sigma L5125, in PBS), and plates were shaken gently for about 30 min. Optical density at 620 nm was measured on a microplate reader. Percent inhibition of cell growth was calculated relative to vehicle treated control wells. Concentration of compound that inhibits 50% of cell growth (IC50) was interpolated using nonlinear regression (Levenberg-Marquardt) and the equation, y=Vmax*(1−(x/(K+x)))+Y2, where “K” was equal to the IC50.

In data set [2] the test system is HCT116. The data set can be described thus: Methylene Blue Cell Growth Inhibition Assay, HCT116. The format is cell-based. The following applies: Homo sapiens, HCT-116, 72 h, read-out: MEB HCT116 IC50. As to the method: as §1
Data set [3] relates to MCF7. As to the kind of experiment: Methylene Blue Cell Growth Inhibition Assay, MCF7. The following applies: Homo sapiens, 72 h, read-out: MEB MCF7 IC50. Type of data set: cell-based. The procedure: as §1
For data set [4], the system named is Normal human foreskin fibroblasts (HFF). The data set can be described thus: Methylene Blue Cell Growth Inhibition Assay, HFF. The conditions noted are these: Fibroblast, 72 h, read-out: MEB HFF IC50. The format is cell-based. As to the method:
as §1

Data set [5] has as its system RKO. As to the kind of experiment: Methylene Blue Cell Growth Inhibition Assay, RKO. The format is cell-based. The following applies: Homo sapiens, 72 h, read-out: MEB RKO IC50. As to the method:
as §1

Data set [6] concerns H460. As to the kind of experiment: Methylene Blue Cell Growth Inhibition Assay, H460. Type of data set: cell-based. The conditions noted are these: Homo sapiens, NCI-H460, 72 h, read-out: MEB H460 IC50. The procedure:
as §1

In data set [7] the test system is HCT-116. As to the kind of experiment: Cell-Titer Glo Cell Growth Inhibition Assay, HCT116. Type of data set: cell-based. The conditions noted are these: Homo sapiens, CellTiter-Glo, 72 h, read-out: CTG HCT116 IC50. As to the method: A549-L (human lung), BT474 (human breast), Colo 205 (human colon), H1299 (human lung), Hela (human cervix), HCT-116 (human colon), HN5 (human head and neck), HT29 (human colon), LNCap (human prostate), MCF7 (human breast), MDA-MB468 (human breast), MX-1 (human breast), RPMI 8226 (human peripheral blood), SKOV3 (human ovary) and P388 (murine leukemia) cell lines were cultured in RPMI1640 containing 10% fetal bovine serum at 37° C. in a 5% CO2 incubator. Cell lines were split into T75 flasks (Falcon #353136) two to three days prior to assay set up at density which yields approximately 70-80% confluency at time of harvest for assay. Cells were harvested using 0.25% trypsin with EDTA (Glibco/Invitrogen #25200-056), Cell counts were performed on cell suspensions using Trypan Blue exclusion staining, cells were then plated in 105 uL of culture media per well at the following densities in 96 well Costar #3916 black flat bottom plates: All human cell lines were plated at 500 cells/well. P388 were plated at 250 cells/well. All plates were placed at 5% CO2 37° C. overnight and then test compounds were added the following day. One plate of each cell type is treated with CellTiter-Glo (Promega #G7573) for a day 0 proliferation measurement and read as described below. The test compounds are prepared in clear U bottom polypropylene 96 well plates (Falcon #35-1190 with consecutive two fold dilutions. 9 uL of these dilutions was added into each well of the cell plates. The final concentration of DMSO in all wells is 0.15%. Cells were incubated at 37° C., 5% CO2 for 72 h. Following 72 h of incubation with compounds each plate was developed and read. CellTiter-Glo reagent was added to assay plates using a volume equivalent to the cell culture volume in the wells. Plates were shaken for approximately two minutes and incubated at room temperature for approximately 15 min and the chemiluminescent signal is read on the Victor V or Envison 2100 reader. […] Concentration of compound that inhibited 50% of cell growth (IC50) was analysis by 4 or 6 parameter fit of data using XLfit, value of no cell addition was subtracted from all samples for background.
In general terms: In ATP-based viability assays light output follows the ATP content of the culture.

Data set [8] concerns the target T1, PLK1 kinase domain (Homo sapiens, UniProt P53350).
T1 construct: made in house; host or cells: baculovirus infected T. ni cells
As to the kind of experiment: Assay for Inhibition of PLK1 (33P SPA kinase assay). The following applies: 2 nM PLK1 kinase domain, 1 μM ATP; read-out: PLK1 pIC50 (converted). The format is biochemical. As to the method: All procedures were performed at 4° C. Cells were lysed in 50 mM HEPES, 200 mM NaCl, 50 mM imidazole, 5% glycerol; pH 7.5. The homogenate was centrifuged at 14K rpm in a SLA-1500 rotor for 1 h and the supernatant filtered through a 1.2 micron filter. The supernatant was loaded onto a Nickel chelating Sepharose (Amersham Pharmacia) column and washed with lysis buffer. Protein was eluted using 20%, 30% and 100% buffer B steps where buffer B is 50 mM HEPES, 200 mM NaCl, 300 mM imidazole, 5% glycerol; pH 7.5. Fractions containing PLK were determined by SDS-PAGE. Fractions containing PLK were diluted five-fold with 50 mM HEPES, 1 mM DTT, 5% glycerol; pH 7.5, then loaded on an SP Sepharose (Amersham Pharmacia) column. After washing the column with 50 mM HEPES, 1 mM DTT, 5% glycerol; pH 7.5, PLK was step eluted with 50 mM HEPES, 1 mM DTT, 500 mM NaCl; 5% glycerol; pH 7.5. PLK was concentrated using a 10 kDa molecular weight cutoff membrane and then loaded onto a Superdex 200 gel filtration (Amersham Pharmacia) column equilibrated in 25 mM HEPES, 1 mM DTT, 500 mM NaCl, 5% glycerol; pH 7.5. Fractions containing PLK were determined by SDS-PAGE. PLK was pooled, aliquoted and stored at −80° C. Samples were quality controlled using mass spectrometry, N-terminal sequencing and amino acid analysis.
B. Enzyme activity +/− inhibitors was determined as follows:
All measurements were obtained under conditions where signal production increased linearly with time and enzyme. Test compounds were added to white 384-well assay plates (0.1 μL for 10 μL and some 20 μl assays, 1 μL for some 20 μL assays) at variable known concentrations in 100% DMSO. DMSO (1-5% final, as appropriate) and EDTA (65 mM in reaction) were used as controls.
Reaction Mix (10 or 20 μL) was quickly added to each well immediately following addition of enzyme via automated liquid handlers and incubated 1-1.5 h at 22° C. The 20 μL enzymatic reactions were stopped with 50 μL of stop mix (50 mM EDTA, 4.0 mg/mL Streptavidin SPA beads in Standard Dulbecco's PBS (without Mg^2+ and Ca^2+), 50 μM ATP) per well. The 10 μL reactions were stopped with 10 μL of stop mix (50 mM EDTA, 3.0 mg/mL Streptavidin-coupled SPA Imaging Beads (“LeadSeeker”) in Standard Dulbecco's PBS (without Mg^2+ and Ca^2+), 50 μM ATP) per well. Plates were sealed with clear plastic seals, spun at 500×g for 1 min or settled overnight, and counted in Packard TopCount for 30 seconds/well (regular SPA) or imaged using a Viewlux imager (LeadSeeker SPA). Signal above background (EDTA controls) was converted to percent inhibition relative to that obtained in control (DMSO-only) wells.

In data set [9] the test system is MX-1. As to the kind of experiment: Methylene Blue Cell Growth Inhibition Assay, MX-1. The format is cell-based. The following applies: Homo sapiens, MX1, 72 h, read-out: MEB MX-1 IC50.
Data set [10] in a line: Intravenous pharmacokinetics in CD-1 mouse. Type of data set: in vivo. The conditions noted are these: plasma, iv bolus, male CD-1 mouse, dose 1.9-7.4 mg/kg per compound (Table 3); for clearance: read-out: Plasma CL. As to the method:
Preliminary investigation of the intravenous pharmacokinetics of compounds of invention were carried out in fed conscious CD-1 mouse. Compounds were formulated as 1-10 mg/kg, 5 mL/kg, 1-2 mg/mL solution (Table 3). Twenty one male mice (n=3 mice per time point) (˜30 g) received dose solution by bolus injection in the tail vein. The formulation for iv were either 20% beta cyclodextrin in saline pH 3.5-6 or PEG400:ethanol:saline (50:15:35 v/v). Blood samples (˜0.4 mL) were collected terminally by cardiac puncture following anesthetization in a CO2 chamber at 2, 15, 30, 60 min, 2, 4, and 6 h following iv administration. Blood samples were collected into tubes containing heparin and placed on crushed ice promptly after collection. Plasma was collected by centrifugation, frozen and stored at about −80° C. prior to analysis. Blood or plasma concentrations were determined by LC/MS/MS equipped with an electrospray ion source and using calibration curves for the appropriate matrix. The lower level of quantitation (LLQ) was 10 ng/mL. Blood or plasma concentration-time data were analyzed by non-compartmental methods using the computer program WinNonlin Professional (version 4.1). Area under the blood or plasma concentration-time curve (AUC) was calculated using the linear trapezoidal rule for each incremental trapezoid up to Cmax, and the log trapezoidal rule for each trapezoid thereafter. The terminal elimination rate constant (λz) was derived from the log-linear disposition phase of the concentration-time curve using least-squares regression analysis with visual inspection of the data to determine the appropriate number of terminal data points for regression analysis.
Following iv administration, the total body clearance (CL) was estimated. CL was calculated by dividing the dose by AUC(0−t). The clearance values were assigned as follows. Low <30 mL/min/kg, moderate 30-70 mL/min/kg, high >70 mL/min/kg. The assignment was based on hepatic blood flow i.e. hepatic blood flow of 0-30% low, 30-70% moderate and 70-100% high. The hepatic blood flow in mouse is ˜100 mL/min/kg.

A word on the AUC(0-t): it is the area under the concentration-time curve up to a stated or last time point. A higher AUC(0-t) goes with high exposure.

T1 sequence (P53350 21-346): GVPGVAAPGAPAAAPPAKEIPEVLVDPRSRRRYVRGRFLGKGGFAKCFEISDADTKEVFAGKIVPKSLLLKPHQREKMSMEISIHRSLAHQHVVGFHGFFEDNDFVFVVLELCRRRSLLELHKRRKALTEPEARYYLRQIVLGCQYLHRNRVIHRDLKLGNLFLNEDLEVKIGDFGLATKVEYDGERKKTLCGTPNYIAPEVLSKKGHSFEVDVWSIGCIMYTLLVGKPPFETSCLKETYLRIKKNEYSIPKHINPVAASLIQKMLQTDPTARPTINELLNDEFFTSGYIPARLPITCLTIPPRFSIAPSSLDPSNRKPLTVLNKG

For the compound `COc1cc2c(cc1OCCCN1CCCC1=O)ncn2-c1cc(OCc2ccccc2C(F)(F)F)c(C(N)=O)s1` [PU4870 Ex 134, reference compound], the IC50 in [1], in data set [2], in [3], in data set [4], in data set [5] and in [6] was above 1000 nM in each case. Further, the IC50 in data set [7] was above 1000 nM; in [8], 10 to 1000 nM.

For `NC(=O)c1sc(-n2cnc3cc(C(=O)NCCN4CCNC4=O)ccc32)cc1OCc1ccccc1C(F)(F)F` [PU4870 Ex 156, reference compound], the IC50 in [2] is above 1000 nM; in [3] it was above 1000 nM; in data set [4], above 1000 nM; in data set [5], above 1000 nM; in data set [6], above 1000 nM; in data set [8] it was 10 to 1000 nM.

On to `C[C@@H](Oc1cc(-n2cnc3cc(-c4cn[nH]c4)ccc32)sc1C(N)=O)c1ccccc1C(F)(F)F` [Example 5, 5-[5-(1H-Pyrazol-4-yl)-1H-benzimidazol-1-yl]-3-({(1R)-1-[2-(trifluoromethyl)phenyl]ethyl}oxy)-2-thiophenecarboxamide], for which the IC50 was below 100 nM in [9]; below 100 nM in data set [1]; below 100 nM in data set [2]; 100 to 1000 nM in data set [4]; below 100 nM in data set [5]; below 100 nM in data set [6]. Besides, the IC50 in [7] was below 100 nM. Besides, in [10], the AUC(0-t) is 1370 ng·h/mL. Also, in data set [10], the clearance amounted to 23.1 mL/min/kg.

Turning to `COc1cc2ncn(-c3cc(OC(C)c4ccccc4Cl)c(C(N)=O)s3)c2cc1OC` (stereo not drawn) [PU4870 Ex 126, reference compound], the IC50 was below 100 nM in data set [1]; below 100 nM in [2]; above 1000 nM in [3]; 100 to 1000 nM in [4]; below 100 nM in data set [5]; below 100 nM in data set [6].

As for `COc1cc2ncn(-c3cc(OC(C)c4ccccc4C(F)(F)F)c(C(N)=O)s3)c2cc1OC` (stereo not drawn) [PU4870 Ex 127, reference compound], the IC50 in [1] was below 100 nM; in data set [3], 100 to 1000 nM; in data set [4], above 1000 nM; in data set [5] it was below 100 nM; in [6], below 100 nM; in [7], 100 to 1000 nM. For the same compound, in [8], the IC50 is below 10 nM.

Consider `C[C@@H](Oc1cc(-n2cnc3cc(-c4ccnc(N)c4)ccc32)sc1C(N)=O)c1ccccc1C(F)(F)F` [Example 4, 5-[5-(2-Amino-4-pyridinyl)-1H-benzimidazol-1-yl]-3-({(1R)-1-[2-(trifluoromethyl)phenyl]ethyl}oxy)-2-thiophenecarboxamide], for which the IC50 was below 100 nM in data set [9]; below 100 nM in data set [1]; below 100 nM in data set [2]; 100 to 1000 nM in data set [4]; below 100 nM in data set [5]; below 100 nM in data set [6]. Further, the IC50 in data set [7] was below 100 nM. The AUC(0-t) in data set [10] came to 1170 ng·h/mL. Also, in [10], the clearance worked out at 37.9 mL/min/kg.

The values above are taken from US20080214563A1, “Benzimidazole Thiophene Compounds As Plk Modulators” (priority 2005, published 2008).
